Experimental findings from ChEMBL document CHEMBL4732198, “HDAC7 Inhibition by Phenacetyl and Phenylbenzoyl Hydroxamates” (J Med Chem, 2021) are described below.

The IC50 is the midpoint of a concentration-inhibition curve. A word on the half-life: it is the time in which the quantity being followed falls by half.

Calls of active or inactive are those of the source. The rule behind the calls is not given here. Where only a bound is given, the exact number is not on record here.

The target of data set [1] is Histone deacetylase 1 (Homo sapiens, UniProt Q13547). As to the kind of experiment: Inhibition of recombinant human HDAC1 using Ac-LGK(Ac)-AMC as substrate preincubated for 30 mins followed by substrate addition and measured after 90 mins by fluorescence based assay.
Histone deacetylase 1, sequence (Q13547 whole entry): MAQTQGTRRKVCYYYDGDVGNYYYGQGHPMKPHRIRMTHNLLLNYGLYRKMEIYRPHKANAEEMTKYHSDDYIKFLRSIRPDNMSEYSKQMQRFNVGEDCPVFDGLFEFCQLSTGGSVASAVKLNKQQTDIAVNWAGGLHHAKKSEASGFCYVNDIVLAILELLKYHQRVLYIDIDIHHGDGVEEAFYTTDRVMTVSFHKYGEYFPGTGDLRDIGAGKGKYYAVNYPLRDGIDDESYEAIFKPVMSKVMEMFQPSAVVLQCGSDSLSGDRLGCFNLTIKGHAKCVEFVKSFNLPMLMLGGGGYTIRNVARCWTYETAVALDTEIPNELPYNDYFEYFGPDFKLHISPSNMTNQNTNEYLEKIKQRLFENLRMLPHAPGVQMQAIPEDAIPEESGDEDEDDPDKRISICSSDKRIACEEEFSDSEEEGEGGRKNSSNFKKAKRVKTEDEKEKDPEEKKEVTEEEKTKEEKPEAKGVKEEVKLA
The target of data set [2] is T1, Histone deacetylase 7 (Homo sapiens, UniProt Q8WUI4).
T1 sequence (Q8WUI4 whole entry): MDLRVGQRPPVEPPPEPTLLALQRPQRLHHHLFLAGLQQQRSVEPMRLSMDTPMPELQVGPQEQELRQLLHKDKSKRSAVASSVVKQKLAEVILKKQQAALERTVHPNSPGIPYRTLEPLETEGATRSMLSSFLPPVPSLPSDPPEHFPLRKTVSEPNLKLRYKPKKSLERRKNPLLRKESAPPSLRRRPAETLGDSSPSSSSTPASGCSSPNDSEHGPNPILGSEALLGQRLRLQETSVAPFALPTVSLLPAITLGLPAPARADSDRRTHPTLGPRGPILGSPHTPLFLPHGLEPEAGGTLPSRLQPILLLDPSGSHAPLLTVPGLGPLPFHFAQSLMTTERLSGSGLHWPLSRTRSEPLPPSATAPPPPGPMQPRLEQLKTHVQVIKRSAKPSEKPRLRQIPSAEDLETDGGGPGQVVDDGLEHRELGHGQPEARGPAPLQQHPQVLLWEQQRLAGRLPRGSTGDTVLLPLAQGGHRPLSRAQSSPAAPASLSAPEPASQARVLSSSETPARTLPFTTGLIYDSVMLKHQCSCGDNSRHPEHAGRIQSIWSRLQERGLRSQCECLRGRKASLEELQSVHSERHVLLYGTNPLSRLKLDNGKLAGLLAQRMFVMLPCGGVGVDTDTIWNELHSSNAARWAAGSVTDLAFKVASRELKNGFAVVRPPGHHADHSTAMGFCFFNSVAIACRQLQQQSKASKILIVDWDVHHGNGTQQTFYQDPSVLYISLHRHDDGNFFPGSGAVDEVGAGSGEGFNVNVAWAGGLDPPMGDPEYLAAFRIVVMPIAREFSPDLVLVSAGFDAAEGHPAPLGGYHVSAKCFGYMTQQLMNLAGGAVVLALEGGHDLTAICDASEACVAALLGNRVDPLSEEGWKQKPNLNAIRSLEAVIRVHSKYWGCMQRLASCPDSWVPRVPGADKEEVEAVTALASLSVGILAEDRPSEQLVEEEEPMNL
Description: Inhibition of recombinant human HDAC7 using Ac-LGK(TFA)-AMC as substrate pre-incubated for 15 mins followed by substrate addition and measured after 60 mins by fluorescence based assay

The target in data set [3] is Class 1 histone deacetylase (Homo sapiens, UniProt Q13547+O15379+Q92769+Q9BY41). Briefly: Inhibition of Class 1 histone deacetylase in human THP-1 cells assessed as accumulation of Histone H4 acetylation levels at 1 to 10 uM incubated for 3 hrs by western blot analysis. The conditions noted are these: dose 1-10 µM. In kind it is cell-based.
Data set [4] is described as follows: Metabolic stability in Sprague-Dawley rat liver microsomes assessed as half life at 5 uM preincubated for 5 mins followed by NADPH addition and measured after 60 mins by LCMS analysis. In kind it is ADME, Microsome. The following applies: time 65 min. (In general: Liver microsomes are a subcellular fraction often used to study metabolism.)

As for `O=C(NO)[C@H](CCCCN1C(=O)c2ccccc2C1=O)c1ccccc1`, in data set [1], the 50% inhibitory concentration (IC50) stood at 20 µM. On to `O=C(NO)c1ccc(CN2C(=O)c3cccnc3C2=O)cc1-c1ccccc1`, for which the IC50 in data set [1] is more than 100 µM.

Turning to `O=C(NCc1ccc(C(=O)NO)c(-c2ccccc2)c1)c1ccccc1F`, the IC50 in data set [1] is 39 µM. Take `O=C(NCCCCC(C(=O)NO)c1ccccc1)c1ccccc1O` (stereo not drawn): the results for the concentration for half-maximal inhibition (IC50) in data set [2] and in data set [1] were 1.9 µM and more than 10 µM, respectively. In data set [2], `O=C(NO)C(OCCCN1C(=O)c2ccccc2C1=O)c1cccc(Cl)c1` (stereo not drawn) came in with a concentration for half-maximal inhibition (IC50) of 1.1 µM.

As to `O=C(NO)c1ccc(CN2C(=O)CCC2=O)cc1-c1ccccc1`, the concentration for half-maximal inhibition (IC50) in data set [1] was more than 100 µM. In the case of `CC(C)[C@H](C(=O)Nc1ccc(C(=O)NO)cc1)c1ccccc1`, in data set [3], the inhibition result is “Active”. In the case of `COc1ccc(CC(=O)NCCCCC(C(=O)NO)c2ccccc2)cc1` (stereo not drawn), the IC50 in data set [2] came to 1.7 µM; in data set [1] it was 10 µM. For the molecule `O=C(NO)C(CCCCN1C(=O)c2ccccc2C1=O)c1ccccc1` (stereo not drawn), the IC50 in data set [1] was 26 µM. Moreover, the half-life at 5 µM in data set [4] was found to be 0.533 h. The like results for `O=C(NO)c1ccc(CN2Cc3ccccc3C2=O)cc1-c1ccccc1` were, in that order, 10 µM and 2.82 h. Take `O=C(CCCCCCC(=O)Nc1ccccc1)NO` [VORINOSTAT]: the half-life at 5 µM in data set [4] was 3.3 h. `O=C(NO)C(OCCCN1C(=O)c2ccccc2C1=O)c1ccccc1` (stereo not drawn): the IC50 in data set [2] amounted to 1.1 µM. For the molecule `O=C(O)c1ccccc1C(=O)NCc1ccc(C(=O)NO)c(-c2ccccc2)c1`, the half-maximal inhibitory concentration (IC50) in data set [1] was more than 100 µM. Consider `O=C(NO)c1ccc(CN2C(=O)c3ccncc3C2=O)cc1-c1ccccc1`, for which the IC50 in data set [1] was more than 100 µM. In the case of `O=C(NO)c1ccc(CN2C(=O)c3ccccc3C2=O)cc1`, the concentration for half-maximal inhibition (IC50) in data set [1] was 0.17 µM. Still for that read-out and setting: next, `Cc1ccc(C(=O)NO)c(-c2ccccc2)c1`: more than 100 µM. Regarding `O=C(O)c1cccc(C(CCCCN2C(=O)c3ccccc3C2=O)C(=O)NO)c1` (stereo not drawn), the IC50 in data set [2] and in data set [1] was 1.4 µM throughout.

For `O=C(NO)[C@@H](CCCCN1C(=O)c2ccccc2C1=O)c1ccccc1`, the IC50 in data set [1] was 19 µM.
